In US20250179059A1 (The Regents of the University of California, priority 2021, published 2025):

How the values were obtained:
[1] = biological target: T1, human BRD4 bromodomain II (Homo sapiens, UniProt O60885); assay: Bromodomain binding assay (AlphaScreen), BRD4 BDII; details: AlphaScreen assay, Table C2; read-out: BRD4 BDII IC50
T1 construct: human BRD4 bromodomain II [based on Genbank NM_058243, residues 349-460]; host or cells: E. coli
Summary of the method: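 Compounds (10-point, 3-fold series) were preincubated 30 min at room temperature with E. coli-expressed N-terminal His6-tagged BRD4 BDII (residues 349-460) or BDI (residues 44-170) in 50 mM HEPES pH 7.5, 100 mM NaCl, 0.05% CHAPS, 0.1% BSA, 1% DMSO. Displacement of biotinylated tetra-acetylated H4 1-21 peptide was read by AlphaScreen; IC50 from curve fitting.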

[2] = test system: human SKM-1 acute myeloid leukemia cells; assay: SKM-1 antiproliferation cell-based assay (ATPlite); details: Homo sapiens, SKM-1, 96 h, SKM-1 antiproliferation assay, 4 days, Table C2
Summary of the method: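 Log-phase cells in RPMI 1640/15% FBS were seeded at 34722 cells/mL and exposed for 4 days to nine-concentration DMSO serial dilutions in triplicate. Viability was read as ATP luminescence (ATPlite 1step), and IC50 values came from variable-slope non-linear regression.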

| Compound | IC50 [1] | GI50 [2] |
| --- | --- | --- |
| Cn1ccn(-c2ccc(-c3cc(F)cc(-c4ccnc(N5CCN6CCCCC6C5)c4)c3O)cc2Cl)c1=O (centres unmarked) [Example 624, 1-(3-chloro-5′-fluoro-3′-(2-(hexahydro-1H-pyrido[1,2-a]pyrazin-2(6H)-yl)pyridin-4-yl)-2′-hydroxy-[1,1′-biphenyl]-4-yl)-3-methyl-1H-imidazol-2(3H)-one] | 0.01 to 1 nM | 30 to 300 nM |
| Cn1ccn(-c2ccc(-c3cc(F)cc(-c4ccnc(N5CCN6CCCC6C5)c4)c3O)cc2Cl)c1=O (centres unmarked) [Example 625, 1-(3-chloro-5′-fluoro-3′-(2-(hexahydropyrrolo[1,2-a]pyrazin-2(1H)-yl)pyridin-4-yl)-2′-hydroxy-[1,1′-biphenyl]-4-yl)-3-methyl-1H-imrdazol-2(3H)-one] | 0.01 to 1 nM | 0.3 to 30 nM |
| Cn1ccn(-c2ccc(-c3cc(F)cc(-c4ccnc(N5CCC[C@H](O)C5)c4)c3O)cc2Cl)c1=O [Example 628, (S)-1-(3-chloro-5′-fluoro-2′-hydroxy-3′-(2-(3-hydroxypiperidin-1-yl)pyridin-4-yl)-[1,1′-biphenyl]-4-yl)-3-methyl-1H-imidazol-2(3H)-one] | 0.01 to 1 nM | 30 to 300 nM |
| Cn1ccn(-c2ccc(-c3cc(F)cc(-c4ccnc(N5CCN(Cc6ccccc6)CC5)c4)c3O)cc2Cl)c1=O [Example 629, 1-(3′-(2-(4-benzylpiperazin-1-yl)pyridin-4-yl)-3-chloro-5′-fluoro-2′-hydroxy-[1,1′-biphenyl]-4-yl)-3-methyl-1H-imidazol-2(3H)-one] | 0.01 to 1 nM | 30 to 300 nM |
| C[C@@H]1CN(c2cc(-c3cc(F)cc(-c4ccc(-n5ccn(C)c5=O)c(Cl)c4)c3O)cn(CCCO)c2=O)CCN1 [Example 630, (R)-5-(3′-chloro-5-fluoro-2-hydroxy-4′-(3-methyl-2-oxo-2,3-dihydro-IH-imidazol-1-yl)-[1,1′-biphenyl]-3-yl)-1-(3-hydroxypropyl)-3-(3-methylpiperazin-1-yl)pyridin-2(1H)-one] | 0.01 to 1 nM | 30 to 300 nM |
| Cn1ccn(-c2ccc(-c3cc(F)cc(-c4ccnc(N5CCNC(c6ccccc6)C5)c4)c3O)cc2Cl)c1=O (centres unmarked) [Example 631, 1-(3-chloro-5′-fluoro-2′-hydroxy-3′-(2-(3-phenylpiperazin-1-yl)pyridin-4-yl)-[1,1′-biphenyl]-4-yl)-3-methyl-1H-imidazol-2(3H)-one] | 0.01 to 1 nM | 30 to 300 nM |
| COCCCN1CCN(c2cc(-c3cc(F)cc(-c4ccc(-n5ccn(C)c5=O)c(Cl)c4)c3O)ccn2)CC1 [Example 633, 1-(3-chloro-5′-fluoro-2′-hydroxy-3′-(2-(4-(3-methoxypropyl)piperazin-1-yl)pyridin-4-yl)-[1,1′-biphenyl]-4-yl)-3-methyl-1H-imidazol-2(3H)-one] | 0.01 to 1 nM | 0.3 to 30 nM |
| Cn1ccn(-c2ccc(-c3cc(F)cc(-c4ccnc(N5CCN(C6CCOCC6)CC5)c4)c3O)cc2Cl)c1=O [Example 634, 1-(3-chloro-5′-fluoro-2′-hydroxy-3′-(2-(4-(tetrahydro-2H-pyran-4-yl)piperazin-1-yl)pyridin-4-yl)-[1,1′-biphenyl]-4-yl)-3-methyl-1H-imidazol-2(3H)-one] | 0.01 to 1 nM | 0.3 to 30 nM |
| Cn1ccn(-c2ccc(-c3cc(F)cc(-c4ccnc(N5CC[C@H](N6CCOCC6)C5)c4)c3O)cc2Cl)c1=O [Example 635, (S)-1-(3-chloro-5′-fluoro-2′-hydroxy-3′-(2-(3-morpholinopyrrolidin-1-yl)pyridin-4-yl)-[1,1′-biphenyl]-4-yl)-3-methyl-1H-imidazol-2(3H)-one] | 1 to 10 nM | 0.3 to 30 nM |
| C[C@@H]1CN(c2cc(-c3cc(F)cc(-c4ccc(-n5ccn(C)c5=O)c(Cl)c4)c3O)cc(OCCCO)n2)CCN1 [Example 638, (R)-1-(3-chloro-5′-fluoro-2′-hydroxy-3′-(2-(3-hydroxypropoxy)-6-(3-methylpiperazin-1-yl)pyridin-4-yl)-[1,1′-biphenyl]-4-yl)-3-methyl-1H-imidazol-2(3H)-one] | 0.01 to 1 nM | 0.3 to 30 nM |
| Cn1ccn(-c2ccc(-c3cc(F)cc(-c4ccnc(N5CCN[C@H](C(C)(C)O)C5)c4)c3O)cc2Cl)c1=O [Example 639, (S)-1-(3-chloro-5′-fluoro-2′-hydroxy-3′-(2-(3-(2-hydroxypropan-2-yl)piperazin-1-yl)pyridin-4-yl)-[1,1′-biphenyl]-4-yl)-3-methyl-1H-imidazol-2(3H)-one] | 0.01 to 1 nM | 0.3 to 30 nM |
| Cn1ccn(-c2ccc(-c3cc(F)cc(-c4ccnc(N5CCNC(CCO)C5)c4)c3O)cc2Cl)c1=O (centres unmarked) [Example 640, 1-(3-chloro-5′-fluoro-2′-hydroxy-3′-(2-(3-(2-hydroxyethyl)piperazin-1-yl)pyridin-4-yl)-[1,1′-biphenyl]-4-yl)-3-methyl-1H-imidazol-2(3H)-one] | 0.01 to 1 nM | 0.3 to 30 nM |
| Cn1ccn(-c2ccc(-c3cc(F)cc(-c4ccnc(N5CCN[C@H](CC(N)=O)C5)c4)c3O)cc2Cl)c1=O [Example 644, (R)-2-(4-(4-(3′-chloro-5-fluoro-2-hydroxy-4′-(3-methyl-2-oxo-2,3-dihydro-1H-imidazol-1-yl)-[1,1′-biphenyl]-3-yl)pyridin-2-yl)piperazin-2-yl)acetamide] | 0.01 to 1 nM | 0.3 to 30 nM |
| COCCN1CCN(c2cc(-c3cc(F)cc(-c4ccc(-n5ccn(C)c5=O)c(Cl)c4)c3O)ccn2)CC1 [Example 645, 1-(3-chloro-5′-fluoro-2′-hydroxy-3′-(2-(4-(2-methoxyethyl)piperazin-1-yl)pyridin-4-yl)-[1,1′-biphenyl]-4-yl)-3-methyl-1H-imidazol-2(3H)-one] | 0.01 to 1 nM | 0.3 to 30 nM |
| Cn1ccn(-c2ccc(-c3cc(F)cc(-c4ccnc(N5CCN(CC6CCC6)CC5)c4)c3O)cc2Cl)c1=O [Example 646, 1-(3-chloro-3′-(2-(4-(cyclobutylmethyl)piperazin-1-yl)pyridin-4-yl)-5′-fluoro-2′-hydroxy-[1,1′-biphenyl]-4-yl)-3-methyl-1H-imidazol-2(3H)-one] | 0.01 to 1 nM | 0.3 to 30 nM |
| Cn1ccn(-c2ccc(-c3cc(F)cc(-c4ccnc(N5CCN6CCOCC6C5)c4)c3O)cc2Cl)c1=O (centres unmarked) [Example 647, 1-(3-chloro-5′-fluoro-3′-(2-(hexahydropyrazino[2,1-c][1,4]oxazin-8(1H)-yl)pyridin-4-yl)-2′-hydroxy-[1,1′-biphenyl]-4-yl)-3-methyl-1H-imidazol-2(3H)-one] | 0.01 to 1 nM | 0.3 to 30 nM |

More lines, now with the values ahead:

| IC50 [1] | GI50 [2] | Compound |
| --- | --- | --- |
| 0.01 to 1 nM | 0.3 to 30 nM | Cn1ccn(-c2ccc(-c3cc(F)cc(-c4ccnc(N5CCCNCC5)c4)c3O)cc2Cl)c1=O [Example 623, 1-(3′-(2-(1,4-diazepan-1-yl)pyridin-4-yl)-3-chloro-5′-fluoro-2′-hydroxy-[1,1′-biphenyl]-4-yl)-3-methyl-1H-imidazol-2(3H)-one] |
| 0.01 to 1 nM | 30 to 300 nM | Cn1ccn(-c2ccc(-c3cc(F)cc(-c4ccnc(N5CC[C@H](O)C5)c4)c3O)cc2Cl)c1=O [Example 626, (S)-1-(3-chloro-5′-fluoro-2′-hydroxy-3′-(2-(3-hydroxypyrrolidin-1-yl)pyridin-4-yl)-[1,1′-biphenyl]-4-yl)-3-methyl-1H-imidazol-2(3H)-one] |
| 0.01 to 1 nM | 30 to 300 nM | Cn1ccn(-c2ccc(-c3cc(F)cc(-c4ccnc(N5CC[C@@H](O)C5)c4)c3O)cc2Cl)c1=O [Example 627, (R)-1-(3-chloro-5′-fluoro-2′-hydroxy-3′-(2-(3-hydroxypyrrolidin-1-yl)pyridin-4-yl)-[1,1′-biphenyl]-4-yl)-3-methyl-1H-imidazol-2(3H)-one] |
| 10 to 100 nM | 300 to 3000 nM | C[C@H]1CCCN(c2cc(-c3cc(F)cc(-c4ccc(-n5ccn(C)c5=O)c(Cl)c4)c3O)ccn2)C1 [Example 632, (S)-1-(3-chloro-5′-fluoro-2′-hydroxy-3′-(2-(3-methylpiperidin-1-yl)pyridin-4-yl)-[1,1′-biphenyl]-4-yl)-3-methyl-1H-imidazol-2(3H)-one] |
| 0.01 to 1 nM | 0.3 to 30 nM | Cn1ccn(-c2ccc(-c3cc(F)cc(-c4ccnc(N5CCC6(CCCN6)C5)c4)c3O)cc2Cl)c1=O (centres unmarked) [Example 636, 1-(3′-(2-(1,7-diazaspiro[4.4]nonan-7-yl)pyridin-4-yl)-3-chloro-5′-fluoro-2′-hydroxy-[1,1′-biphenyl]-4-yl)-3-methyl-1H-imidazol-2(3H)-one] |
| 0.01 to 1 nM | 0.3 to 30 nM | CN1CCCC12CCN(c1cc(-c3cc(F)cc(-c4ccc(-n5ccn(C)c5=O)c(Cl)c4)c3O)ccn1)C2 (centres unmarked) [Example 637, 1-(3-chloro-5′-fluoro-2′-hydroxy-3′-(2-(1-] |
| 0.01 to 1 nM | 0.3 to 30 nM | Cn1ccn(-c2ccc(-c3cc(F)cc(-c4ccnc(N5CCC6(CCN6)C5)c4)c3O)cc2Cl)c1=O (centres unmarked) [Example 641, 1-(3′-(2-(1,6-diazaspiro[3.4]octan-6-yl)pyridin-4-yl)-3-chloro-5′-fluoro-2′-hydroxy-[1,1′-biphenyl]-4-yl)-3-methyl-1H-imidazol-2(3H)-one] |
| 0.01 to 1 nM | 0.3 to 30 nM | CN1CCC12CCN(c1cc(-c3cc(F)cc(-c4ccc(-n5ccn(C)c5=O)c(Cl)c4)c3O)ccn1)C2 (centres unmarked) [Example 642, 1-(3-chloro-5′-fluoro-2′-hydroxy-3′-(2-(1-methyl-1,6-diazaspiro[3.4]octan-6-yl)pyridin-4-yl)-[1,1′-biphenyl]-4-yl)-3-methyl-1H-imidazol-2(3H)-one] |
| 0.01 to 1 nM | 30 to 300 nM | Cn1ccn(-c2ccc(-c3cc(F)cc(-c4ccnc(N5CCNC(C6CC6)C5)c4)c3O)cc2Cl)c1=O (stereo not drawn) [Example 643, 1-(3-chloro-3′-(2-(3-cyclopropylpiperazin-l-yl)pyridin-4-yl)-5′-fluoro-2′-hydroxy-[1,1′-biphenyl]-4-yl)-3-methyl-1H-imidazol-2(3H)-one] |
